Results taken from publication PMC2833169, “Anti-malarial activity of a non-piperidine library of next-generation quinoline methanols” (Malaria Journal, 2010).
Converted amounts (≈) assume the structure as drawn. Read-outs that look alike come from different tables or passages of the source.

Key:
[1] = test system: rodent macrophage (RAW) cell line; assay: cells; conditions: Mus musculus, Macrophage, read-out: Macrophage IC50
[2] = test system: MDR1-transfected MDCK cell monolayers; assay: in vitro; conditions: dog, MDCK-MDR1, 2 h, 5 μM, pH 7.4
Procedure: For this reason, the apparent permeability of selected compounds across MDR1-transfected MDCK cell monolayers was determined. This assay is an in vitro surrogate of the blood-brain barrier.
Permeability was determined by Absorption Systems (Exton, PA). MDR1-MDCK cell monolayers were grown to confluence on collagen-coated, microporous, polycarbonate membranes in 12-well Costar Transwell plates. […] The permeability assay buffer was Hanks Balanced Salt Solution containing 10 mM HEPES and 15 mM glucose at a pH of 7.4. A known p-glycoprotein inhibitor cyclosporin A (CSA) was also added to the assay buffer at 10 μM. Bovine serum albumin (1%) was added to the receiver well. The dosing solution concentrations of the test compounds were 5.0 μM in the assay buffer. All cell monolayers were first pre-incubated for 30 minutes with assay buffer. After 30 minutes, the buffer was removed, replaced with fresh buffer, and time was recorded as 0. […] Cell monolayers were dosed on the apical side (A-to-B) or basolateral side (B-to-A) and incubated at 37°C with 5% CO2 in a humidified incubator. After 2 hours, aliquots were taken from the receiver chambers. Samples were taken from the donor chamber at 0 and 2 hours. Each determination was performed in duplicate. The lucifer yellow flux was also measured for each monolayer to ensure no damage was inflicted to the cell monolayers during the flux period. All samples were assayed by LC/MS/MS using electrospray ionization.
Apparent permeability in the apical (A-B direction), PappA-B, and percent recovery are reported. Apparent permeability is a measure of the rate of transport across the cell monolayer. Percent recovery refers to the amount of compound recoverable at the end of the assay. Low recovery may indicate non-specific binding to assay plates, instability or accumulation in the cell pellet.
The apparent permeability, Papp, and percent recovery were calculated as follows:
Papp = (dCr/dt) × Vr/(A × C0) (1)
Percent Recovery = 100 × ((Vr × Cr^final) + (Vd × Cd^final))/(Vd × […]) (2)

[3] = test system: P. falciparum strain TM91C235; assay: labeled hypoxanthine susceptibility assay, P. falciparum TM91C235; type: cell-based, Plasmodium falciparum; conditions: Plasmodium falciparum
Procedure: (§1) The in vitro activities of quinoline methanols against P. falciparum strains W2, D6, TM91C235, and TM90C2A were evaluated using the traditional labeled hypoxanthine assay of Desjardins et al as modified by Milhous et al. These four P. falciparum strains were selected since they have various levels of resistance to conventional anti-malarials.

[4] = test system: P. falciparum strain TM90C2A; assay: labeled hypoxanthine susceptibility assay, P. falciparum TM90C2A; type: cell-based, Plasmodium falciparum; conditions: for IC90: Plasmodium falciparum, TM90C2A; for CSI (C2A/W2): ratio of IC90 C2A to IC90 W2
Procedure: as §1

A1 receptor = target: T1, A1 receptor (Homo sapiens, UniProt P30542); assay: inhibition of the A1 receptor at 200 nM; type: binding; conditions: duplicate
T1 construct: Caliper Biosciences (contract screen)
T1 sequence (P30542 1-326): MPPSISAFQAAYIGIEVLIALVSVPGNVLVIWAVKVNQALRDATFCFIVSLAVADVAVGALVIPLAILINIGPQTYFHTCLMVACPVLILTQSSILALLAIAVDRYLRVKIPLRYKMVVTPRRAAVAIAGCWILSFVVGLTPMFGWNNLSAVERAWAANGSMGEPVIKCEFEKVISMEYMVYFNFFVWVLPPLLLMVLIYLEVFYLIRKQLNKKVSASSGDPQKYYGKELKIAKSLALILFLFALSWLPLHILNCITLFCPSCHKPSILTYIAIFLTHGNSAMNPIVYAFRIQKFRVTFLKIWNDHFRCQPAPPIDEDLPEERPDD
Procedure: (§2) General cytotoxicity was assessed by first determining LC50 's against a rodent macrophage (RAW) cell line using the 3-(4,5-dimethylthiazole-2-yl)-2,5-diphenyltetrazolium bromide (MTT) assay as described in one of our earlier studies. This screen was conducted to identify compounds that may require de-selection due to generalized toxicity. […] In vitro neurocytotoxicity was assessed by determining LC50s against primary mouse neurons using the MTT assay as described previously. Inhibition of the A2A and A1 receptors was determined at 200 nM in duplicate by Caliper Biosciences (Hanover, Maryland).

A2A receptor = target: T2, A2A receptor (Homo sapiens, UniProt P29274); assay: inhibition of the A2A receptor at 200 nM; type: binding; conditions: 200 nM, duplicate; read-out: % A2A inhibition at 200 nM
T2 construct: Caliper Biosciences (contract screen)
T2 sequence (P29274 whole entry): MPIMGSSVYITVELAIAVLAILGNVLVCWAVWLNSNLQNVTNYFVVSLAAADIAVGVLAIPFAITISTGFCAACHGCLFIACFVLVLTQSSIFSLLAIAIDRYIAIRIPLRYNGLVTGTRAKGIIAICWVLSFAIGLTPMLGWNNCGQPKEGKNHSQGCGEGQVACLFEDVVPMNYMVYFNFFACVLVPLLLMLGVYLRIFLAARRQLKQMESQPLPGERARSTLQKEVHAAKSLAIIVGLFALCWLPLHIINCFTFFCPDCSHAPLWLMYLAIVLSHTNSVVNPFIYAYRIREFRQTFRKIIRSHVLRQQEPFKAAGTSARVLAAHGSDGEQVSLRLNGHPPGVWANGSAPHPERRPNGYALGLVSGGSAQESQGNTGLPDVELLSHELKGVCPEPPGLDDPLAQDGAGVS
Procedure: as §2

P. falciparum strain W2 = assay: labeled hypoxanthine susceptibility assay, P. falciparum W2; type: cell-based, Plasmodium falciparum; conditions: Plasmodium falciparum
Procedure: as §1

CYP450 1A2 = target: T3, CYP450 1A2 (Homo sapiens, UniProt P05177); assay: CYP450 inhibition kit (drug-drug interaction), 1A2; type: biochemical
T3 construct: purchased BD Gentest (Franklin Lakes, NJ)
T3 sequence (P05177 1-516): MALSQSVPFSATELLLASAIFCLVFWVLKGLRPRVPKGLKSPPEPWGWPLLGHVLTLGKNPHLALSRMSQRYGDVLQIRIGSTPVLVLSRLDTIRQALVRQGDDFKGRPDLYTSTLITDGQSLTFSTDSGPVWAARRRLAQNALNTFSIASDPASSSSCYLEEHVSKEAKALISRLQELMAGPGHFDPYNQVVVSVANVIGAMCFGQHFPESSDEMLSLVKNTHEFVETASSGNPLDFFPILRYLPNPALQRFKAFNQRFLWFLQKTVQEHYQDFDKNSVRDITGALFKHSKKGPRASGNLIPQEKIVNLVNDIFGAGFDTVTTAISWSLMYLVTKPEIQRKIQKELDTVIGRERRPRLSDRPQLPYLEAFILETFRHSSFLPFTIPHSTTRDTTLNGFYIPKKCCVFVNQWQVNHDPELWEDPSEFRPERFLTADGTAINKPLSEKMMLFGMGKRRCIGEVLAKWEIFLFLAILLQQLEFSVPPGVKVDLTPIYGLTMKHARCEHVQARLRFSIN
Procedure: Low IC50s against specific cytochrome P450 isoforms may indicate the potential for a harmful drug interaction to occur in vivo with substrates of that isoform. A lack of metabolic stability in vitro may indicate potential metabolic instability in vivo, and, therefore, a shorter half-life. Drug interaction potential was evaluated in vitro using BD Gentest (Franklin Lakes, NJ) CYP450 inhibition kits as recommended by the manufacturer. Metabolic stability assessments were conducted using in vitro liver microsomes. […] The reaction is started with the addition of 1 U/mL glucose-6-phosphate dehydrogenase G6PD. The mixture is incubated on a shaking platform at 37°C, and aliquots are taken and quenched with the addition of an equal volume of cold acetonitrile at 0, 10, 20, 30, and 60 min. Samples are centrifuged at 3700 rpm for […] at 20°C to remove debris. Sample quantification is carried out by LC/MS, and metabolic half-life is calculated by log plots of the total ion chromatograph area remaining.

[5] = read-out: Pf C2A IC90 nM values calculated using MW in Column C

Structure (SMILES) | IC50 [1] | % recovery (MDCK-MDR1 permeability assay) [2] | PappA-B MDCK-MDR1 [2] | IC90 ([3]; read-out: IC90 Pf C235) | IC90 ([3]; read-out: PF C235 IC90) | IC90 ([4]; read-out: IC90 Pf C2A) | IC90 ([4]; read-out: IC90 PfC2A) | IC90 ([4]; read-out: PF C2A IC90) | IC90 [4, 5] | CSI (C2A/W2) [4] | inhibition at 0.2 µM (A1 receptor) | inhibition at 0.2 µM (A2A receptor) | IC90 (P. falciparum strain W2; W2, read-out: IC90 Pf W2) | IC90 (P. falciparum strain W2; W2, read-out: PF W2 IC90) | IC50 (CYP450 1A2)
CNCC(O)c1cc(C(F)(F)F)nc2c(C(F)(F)F)cccc12 (stereo not drawn) [WR308245] | 40.4 µM | 59% | 24 10^-6 cm/s | 0.058 mg/L (≈ 0.171 µM) | 0.0576 mg/L (≈ 0.17 µM) | 0.08 mg/L | 236 nM | 0.0798 mg/L | 236 nM | 4.8 | 0% | 0% | 0.017 mg/L (≈ 0.0503 µM) | 0.0168 mg/L (≈ 0.0495 µM) | 1.8 µM
CC(C)NCC(O)c1cc(C(F)(F)F)nc2c(C(F)(F)F)cccc12 (stereo not drawn) [WR308257] | 14.2 µM | 69% | – | 0.023 mg/L (≈ 0.0628 µM) | 0.0234 mg/L (≈ 0.0638 µM) | 0.039 mg/L | 107 nM | 0.0392 mg/L | 107 nM | 8.4 | 79% | 17% | 0.0047 mg/L (≈ 0.0128 µM) | 0.00465 mg/L (≈ 0.0127 µM) | 3.9 µM
CSCCCNCC(O)c1cc(C(F)(F)F)nc2c(C(F)(F)F)cccc12 (stereo not drawn) [WR308278] | 20.9 µM | 54% | 38 10^-6 cm/s | 0.039 mg/L (≈ 0.0946 µM) | 0.0393 mg/L (≈ 0.0953 µM) | 0.054 mg/L | 132 nM | 0.0544 mg/L | 132 nM | 5.6 | 9.4% | 1% | 0.0097 mg/L (≈ 0.0235 µM) | 0.00969 mg/L (≈ 0.0235 µM) | 3.5 µM
OC(CNCCNCc1ccccc1)c1cc(C(F)(F)F)nc2c(C(F)(F)F)cccc12 (stereo not drawn) [WR308396] | 18.1 µM | – | 8.4 10^-6 cm/s | 0.04 mg/L (≈ 0.0874 µM) | 0.0401 mg/L (≈ 0.0877 µM) | 0.048 mg/L | 105 nM | 0.048 mg/L | 105 nM | 7.7 | 2.9% | 0% | 0.0062 mg/L (≈ 0.0136 µM) | – | 5.4 µM
